Consider five molecules from patent US20050272737A1, “Combined treatment with irinotecan and an epidermal growth factor receptor kinase inhibitor” (priority 2004, published 2005).

Like-named read-outs stand apart in the source and are kept apart here. A value given as a limit tells only on which side of the number the result lay.

The test system of series [1] is LoVo colorectal xenograft. As to the kind of experiment: Anti-tumor efficacy in LoVo human colorectal xenograft in nude mice (study 525; also experiment 540). It is filed as in vivo, female athymic nu/nu mice. Here is the method: (§1) In this study, the drugs were combined at their respective maximum tolerated dose (MTD) and also combined together at sub-optimal doses. All doses included in the combination groups were also included in the study as monotherapy arms. The attempt was to achieve maximum efficacy/regression without increased toxicity.
(§2) The health of all animals was determined daily by gross observation of experimental animals and by the analyses of blood samples of sentinel animals that were housed on the shared shelf racks. All animals were allowed to acclimate and recover from any shipping related stress for one week prior to experimental manipulation. […] Cages, bedding and water bottles were autoclaved before use and were changed weekly. […] All in vivo experiments were performed in accordance with protocols approved by the Roche Animal Care and Use Committee (RACUC). The Roche animal care facility is fully accredited by the American Association for the Accreditation of Lab Animal Care (AAALAC).
LoVo cells were grown in F-12K+20% FBS (not heat inactivated) and harvested. 5×10^6 cells/0.2 ml/mouse in PBS (Phosphate Buffered Saline) were implanted subcutaneously in the right flank on Jul.
(§3) Formulated compound was made up in one batch for the entire 3 week study.
(§4) An aliquot of the stock vial solutions was taken for each dose group representing the drug needed for that group for the entire study duration and diluted out further with sterile saline, to provide a solution that renders a 0.2 ml dosing volume for each individual animal.
For study […], animals were randomized according to tumor volume on day 17 post tumor implantation so that all groups had similar starting mean tumor volumes of 100-150 mm^3.
[…] Treatment ended on Aug. […] No end of study drug exposure analysis was performed on this study.
(§5) Tumor measurements and mouse weights were taken two-three times per week for LoVo and HCT116. All animals were individually followed throughout the experiment.
(§6) Efficacy data was graphically represented as the mean tumor volume+standard error of the mean (SEM).
(§7) Tumor volume (in cubic millimeters) was calculated using the ellipsoid formula: (D×(d2))/2 • where ‘D’ represents the large diameter of the tumor, and ‘d’ represents the small diameter.
(§8) In some cases, tumor regression and/or percent change in tumor volume was calculated using the formula: ((T−T0)/T0)×100 • where ‘T’ represents mean tumor volume of the treated group at a particular day and ‘T0’ represents mean tumor volume of the same treated group at initiation of treatment.
(§9) Statistical analysis was determined by the rank sum test and One Way Anova and a post-hoc Bonferroni t-test (SigmaStat, version 2.0, Jandel Scientific, San Francisco, Calif.).
(In general: In xenograft studies the graft and the host belong to different species.)

The test system of series [2] is HCT116 colorectal xenograft. Description: Anti-tumor efficacy in HCT116 human colorectal xenograft in nude mice (study 531). Type of series: in vivo, female athymic nu/nu mice. The conditions noted are these: for classification of the HCT116 tumor line towards the agent: therapeutic doses: Tarceva 100 mg/kg qd, Iressa 150 mg/kg. Here is the method: as §1, §2
HCT-116 cells were grown in McCoy's 5A Modified Medium +10% FBS and harvested. 3×10^6 cells/0.2 ml/mouse in PBS (Phosphate Buffered Saline) were implanted subcutaneously in the right flank on Jul.
as §3, §4
(§10) Tarceva™ was administered using a 1 cc syringe and 18-gauge gavage needles (0.2 ml/animal). […] All groups were treated q4d for 3 weeks (total 6 injections). Treatment ended on Aug. […] No end of study of drug exposure analysis was performed on this study.
as §5, §6, §7, §8, §9

The conditions of series [3]: study 531; for toxicity and unscheduled deaths: single agent groups and low dose combination (25/15 mg/kg). Here is the method:
as §2, §10
A full necropsy was performed on five mice per treatment from all remaining groups, Whole blood was also collected for hematology and clinical chemistry. Tumors were removed and fixed in zinc formalin and subsequently embedded in paraffin. Immunohistochemistry can be performed on these sections to assess apoptosis via TUNEL and proliferative index via Ki67. Necrosis can also be assessed on H&E stained sections.
as §5
Weight loss was graphically represented as percent change in mean group body weight, using the formula: ((W−W0)/W0)×100 • where ‘W’ represents mean body weight of the treated group at a particular day, and ‘W0’ represents mean body weight of the same treated group at initiation of treatment.

Series [4] can be described thus: in vivo. Here is the method: The dose of 60 mg/kg was selected as the rational maximum therapeutic dose based on investigator experience with this agent.
For series [5] the following is noted: cited from earlier work.
Series [6] in a line: Toxicity (body weight, deaths, clinical signs, necropsy) in LoVo study 525. It is filed as in vivo, female nude mice. The conditions noted are these: Tarceva 100 mg/kg monotherapy. On the procedure: Female nude mice (10/group), obtained from Charles River Laboratories (Wilmington, Mass.) at an age of 4-6 weeks, and were used when they were ˜10-12 weeks old and weighed ˜23-25 grams.
For efficacy study 525, treatment began on Jul. […] Treatment ended on Aug. 19, 2002 (Day 38 post-tumor implant). No end of study drug exposure analysis was performed on this study.
All animals were individually followed throughout the experiment.

Series [7] concerns LoVo colorectal xenograft. As to the kind of experiment: Anti-tumor efficacy in LoVo human colorectal xenograft in nude mice (study 525; also experiment 540). It is filed as in vivo, female athymic nu/nu mice. The source holds these as a separate data set.
Setting [8] is: Tarceva 25 mg/kg qd monotherapy, study 525, day 38.

Consider `CCc1c2c(nc3ccc(OC(=O)N4CCC(N5CCCCC5)CC4)cc13)-c1cc3c(c(=O)n1C2)COC(=O)[C@]3(O)CC` [CPT-11], for which the “Tumor growth inhibition (TGI)” value in series [1] (CPT-11 15 mg/kg q4d iv monotherapy, study 525) is recorded as 93%; in series [1] (CPT-11 60 mg/kg q4d iv monotherapy, study 525, day 38), more than 100%; in series [2] (CPT-11 15 mg/kg q4d iv monotherapy, study 531), 73%; in series [2] (CPT-11 60 mg/kg q4d iv monotherapy, study 531, day 35) it was more than 100%. The tumors partially regressed in series [1] (CPT-11 60 mg/kg q4d iv monotherapy, study 525) is given as 90%; in series [2] (CPT-11 60 mg/kg q4d iv monotherapy, study 531) it was 70%. For the same molecule, the “toxicity and unscheduled deaths” value in series [3] was “No toxicity or unscheduled deaths”. The MTD at 3 weeks in series [4] (female, mouse, in vivo, iv) turned out to be 66 mg/kg.
On to `COc1cc2ncnc(Nc3ccc(F)c(Cl)c3)c2cc1OCCCN1CCOCC1` [Iressa™], for which the “classification of the HCT116 tumor line towards the agent” value in series [2] was “refractory”. For the same molecule, the “toxicity and unscheduled deaths” value in series [3] is “No toxicity or unscheduled deaths”.
As for `O=C(O)C(=O)O.[NH-][C@@H]1CCCC[C@H]1[NH-].[Pt+2]` [oxaliplatin], the response rate in series [5] (combined with 5-FU and leucovorin, first-line treatment for colorectal cancer) is on record as 25-40%.
With `O=c1[nH]cc(F)c(=O)[nH]1` [5-fluorouracil], in series [5] (single-agent treatment, advanced colorectal cancer), the response rate result is recorded as “about 10%”.
Take `C#Cc1cccc(Nc2ncnc3cc(OCCOC)c(OCCOC)cc23)c1` [Tarceva™, [6,7-bis(2-methoxyethoxy)-4-quinazolin-4-yl]-(3-ethynylphenyl) amine]: the “Tumor growth inhibition (TGI)” value in series [1] (Tarceva 100 mg/kg, experiment 540) was 98%; in series [7] (setting [8]), 79%; in series [7] (Tarceva 100 mg/kg qd oral monotherapy, study 525, day 38 post tumor implant), more than 100%. In addition, the tumors partially regressed in series [1] (Tarceva 100 mg/kg, experiments 525 and 540) was 40-60%. The “mice showing partial regressions (PR)” value in series [1] (erlotinib 100 mg/kg, fraction of mice) was 6/10. In addition, the “single agent tumor efficacy / tumor growth inhibition” value is “not seen” in series [2] (Tarceva 25 mg/kg qd monotherapy, study 531, day 35); “did not render significant tumor growth inhibition” in series [2] (Tarceva 25 mg/kg qd monotherapy, study 531, day 35, listed as erlotinib); “not seen” in series [2] (Tarceva 100 mg/kg qd monotherapy, study 531, day 35 post tumor implant); “did not render significant tumor growth inhibition” in series [2] (Tarceva 100 mg/kg qd monotherapy, study 531, day 35 post tumor implant, listed as erlotinib). Further, the “classification of the HCT116 tumor line towards the agent” value in series [2] is given as “refractory”. For the same molecule, the skin finding entry in series [6] and in series [3] (Tarceva 100 mg/kg monotherapy) was “classic reddening of the skin” in each case. Also, the “toxicity and unscheduled deaths” value in series [3] is reported as “No toxicity or unscheduled deaths”. Also, the tolerability result was “tolerated well” in series [4] (Tarceva 150 mg/kg once a day in CMC/Tween for 3 weeks, previous efficacy studies) and “toxicity” in series [4] (Tarceva 200 mg/kg qd, CMC/Tween, MTD study). This molecule returned an MTD at 14 days in series [4] (female, mouse, in vivo) of 100 mg/kg. For the same molecule, the tumor regression entry in series [7] (Tarceva 25 mg/kg qd monotherapy, study 525) is recorded as “no regression”. Besides, the “% T/C” value is 21% in series [7] (setting [8]) and −2% in series [7] (Tarceva 100 mg/kg qd oral monotherapy, study 525, day 38). Also, the Tumor growth inhibition in series [7] (Tarceva 25 mg/kg qd, experiments 525 and 540) is 53-79%. Further, the “tumors with partial regression” value in series [7] (Tarceva 100 mg/kg qd oral monotherapy, study 525) is listed as 60%.
